Laboratory results reported in US20090018136A1, “METHODS AND COMPOSITIONS FOR THE TREATMENT OF VASCULAR DISEASE” (priority 2005, published 2009).

What was measured:
[1] = tested on: brachial artery; assay: Study 2: brachial artery flow-mediated and nitroglycerin-mediated vasodilation; type: in vivo, human
Description: Brachial artery endothelium-dependent and -independent function was measured using ultrasound, at baseline, after 8 weeks of BH4 treatment, and 1 week after discontinuation of therapy. The technique was carried out as described in Prasad et al., Circulation, 2000. 101(20): p. 2349-54. Briefly, using an 11 MHz high resolution ultrasound transducer (Acuson Inc) in a temperature-controlled room, brachial diameter was measured above the antecubital fossa in the non-dominant arm. Flow-mediated vasodilation (FMD) was measured by inflating a BP cuff on the forearm to >200 mm Hg for 5 minutes, deflating rapidly, and measuring brachial diameter at 1 minute after onset of hyperemia. For all measurements three diameters were measured on three separate end-diastolic frames and averaged. To obtain the maximal brachial artery dilation that represents FMD the following equation was used: (average diameter with hyperemia−average baseline diameter)÷average baseline diameter X 100. To measure the endothelium-independent vasodilator response, subjects were given sublingual nitroglycerin 0.4 mg and the brachial diameter was measured as above after 5 minutes. To obtain endothelium-independent vasodilation the following equation was used: (average diameter post nitroglycerin-average baseline diameter)÷average baseline diameter X 100. For both study 1 and study 2, the primary end point after statistical analysis was a reduction of systolic, mean and diastolic BP during BH4 therapy. Secondary end points included improvement of endothelial function as FMD. Linear mixed effects models for repeated measures data were used to analyze change in BP from baseline to end of treatment period and differences in change between 100 mg and 200 mg dose groups. A quadratic term for week was included in the model to account for non-linear trends over the treatment period. Dose, week and week squared were the main effect terms in the model; dose by week and dose by week squared were the interaction terms in the model. Significant interaction terms indicate a difference in the pattern of change between the two dose groups. FMD data was analyzed using the two-tailed student t-test. […] In study 2, brachial artery endothelium-dependent and independent function was measured, as described above, at the end of the 2-week vitamin C run-in period, at the end of 4 weeks of oral BH4 therapy, and 4 weeks after discontinuation of BH4.

[2] = tested on: coronary vessel; settings: in vivo; cited from earlier work
[3] = tested on: hypertensive patients; assay: Study 2: dose-response of oral BH4 on blood pressure and heart rate, after 2-week vitamin C run-in; type: in vivo, human
Description: Prior studies have used parenteral infusion of BH4 or a single oral dose; thus it was not known whether long-term oral BH4 over a period of days to weeks would result in a sustained improvement in endothelial dysfunction. […] Two studies were conducted to investigate the duration of action of oral BH4 and the response of hypertensive subjects to different doses of BH4. […] Patients were continued on their current anti-hypertensive therapy which remained unchanged. […] BH4 powder was obtained from Schircks Laboratories (Jona, Switzerland). BH4 when administered with vitamin C was compounded with vitamin C at a ratio of 1 mg of vitamin C/1 mg BH4 into appropriate sized capsules. Subjects were advised to keep the pills in a freezer or refrigerator. For both study 1 and study 2, the primary end point after statistical analysis was a reduction of systolic, mean and diastolic BP during BH4 therapy. Secondary end points included improvement of endothelial function as FMD. Linear mixed effects models for repeated measures data were used to analyze change in BP from baseline to end of treatment period and differences in change between 100 mg and 200 mg dose groups. A quadratic term for week was included in the model to account for non-linear trends over the treatment period. Dose, week and week squared were the main effect terms in the model; dose by week and dose by week squared were the interaction terms in the model. Significant interaction terms indicate a difference in the pattern of change between the two dose groups. FMD data was analyzed using the two-tailed student t-test. […] Of the 20 subjects who qualified for participation, 4 were excluded during the run-in phase because of inability to return for follow-up appointments. There were 6 male subjects, mean age 59.5±8.3 years. Eight subjects received 200 mg b.i.d (twice daily) of oral BH4 and 8 received 100 mg b.i.d. of oral BH4. […] Because BH4 was compounded with vitamin C in a 1:1 ratio, all subjects received vitamin C, at their assigned BH4 dose, twice a day during the first 2-week period. After this 2-week run-in period, subjects received BH4 only at their assigned dosage for the next 4 weeks. Weekly heart rate and BP measurements were made during the run-in period and treatment period. Mean blood pressure was calculated as: (SBP+2×DBP)/3. BH4 was then stopped and follow-up was performed at 1 and 4 weeks after discontinuation where BP and heart rate measurements were made. Routine chemistries and LFT's were drawn prior to initiation of medication, at the end of BH4 therapy and one month after discontinuation of BH4.

For `C[C@H](O)[C@H](O)[C@H]1CNc2nc(N)[nH]c(=O)c2N1` [BH4, tetrahydrobiopterin], which FMD ([1]; Study 2, 100 mg b.i.d., after therapy, 5.3±2.5% before, p=0.55, no significant change) is on record?
Its FMD is 6.2±3.5%.

And the FMD ([1]; Study 2, 200 mg b.i.d., after 4 weeks of therapy, 3.7±3% at start, p=0.016, n=7)?
Its FMD is 7.1±4.9%.

What about the FMD ([1]; Study 2, 200 mg b.i.d., one month after discontinuation, p=0.6 compared to baseline) of the same compound?
Its FMD is 3.2±1.1%.

And the “change in nitroglycerin-mediated, endothelium-independent vasodilation” value ([1]; Study 2, either group)?
Its value is “no significant change”.

What about the coronary vessel flow [2] of the same compound?
Its coronary vessel flow is “increased”.

What about the “change in BP” value ([3]; Study 2, 100 mg b.i.d. of BH4) of the same compound?
The value was “No statistically significant change”.

And the “decrease in systolic BP” value ([3]; Study 2, 200 mg b.i.d. oral BH4, 4 weeks, p=0.03)?
Its value is “significant decrease”.

And the “decrease in mean BP” value ([3]; Study 2, 200 mg b.i.d. oral BH4, 4 weeks, p=0.04 by linear trend analysis)?
Its value is “significant decrease”.

And the “BP after discontinuation of BH4” value ([3]; Study 2, 200 mg b.i.d., 4 weeks after discontinuation)?
Its value is “returned to baseline levels”.

What about the “BP after termination of therapy” value ([3]; Study 2, 200 mg b.i.d., a week after termination) of the same compound?
The value was “remained lower”.

And the “systolic BP mean lowering at nadir” value ([3]; Study 2, 200 mg b.i.d., after 3 weeks, p=0.04)?
Its value is 16 mmHg.

What about the “Mean BP after one week” value ([3]; Study 2, 200 mg b.i.d., p=0.02) of the same compound?
The value was “significantly lower”.

And the “decrease in diastolic BP” value ([3]; Study 2, 200 mg b.i.d., p=0.08)?
Its value is “did not reach statistical significance”.

And the “alteration in heart rate with BH4” value ([3]; Study 2, either group, 100 mg or 200 mg b.i.d.)?
Its value is “no significant alteration”.

What about the “dose at which the BP-lowering effect was observed” value ([3]; oral BH4, free of any changes in heart rate) of the same compound?
Its value is at least 200 mg b.i.d.

What about the “time until reduction in BP was evident” value ([3]; oral BH4 therapy) of the same compound?
Its value is at most 1 week.
